The text below walks through data of patent US11214578B2, “Urea/carbamates FAAH MAGL or dual FAAH/MAGL inhibitors and uses thereof” (Northeastern University, priority 2014, dated 2022).

Holding throughout (format): biochemical
Test [1] deals with T1, ΔTM rat FAAH (Rattus norvegicus, UniProt P97612).
T1 construct: Preparation of Transmembrane Domain-Deleted Rat FAAH (ΔTM rFAAH); made in house; host or cells: E. coli
T1 sequence (P97612 30-579 limits assumed): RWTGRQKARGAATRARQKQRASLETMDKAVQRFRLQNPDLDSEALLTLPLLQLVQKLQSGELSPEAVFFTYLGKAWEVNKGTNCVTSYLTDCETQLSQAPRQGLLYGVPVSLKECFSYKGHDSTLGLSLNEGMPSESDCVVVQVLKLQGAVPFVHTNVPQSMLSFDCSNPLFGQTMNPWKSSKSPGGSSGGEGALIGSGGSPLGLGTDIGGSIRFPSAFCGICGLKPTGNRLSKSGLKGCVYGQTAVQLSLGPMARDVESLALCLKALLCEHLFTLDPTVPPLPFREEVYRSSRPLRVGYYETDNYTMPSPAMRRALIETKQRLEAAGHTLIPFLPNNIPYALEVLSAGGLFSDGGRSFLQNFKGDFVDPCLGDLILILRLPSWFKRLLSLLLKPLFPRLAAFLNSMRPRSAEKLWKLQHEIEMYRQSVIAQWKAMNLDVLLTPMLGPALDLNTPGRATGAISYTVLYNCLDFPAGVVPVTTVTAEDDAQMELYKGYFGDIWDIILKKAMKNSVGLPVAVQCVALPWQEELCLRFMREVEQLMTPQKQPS
Description: Fluorescent assay protocol for ΔTM rat FAAH (AAMCA substrate). Particulars: 15 min preincubation, read-out: IC50 rFAAH. In short, it runs like this: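 ΔTM rat FAAH (15 μg) was pre-incubated 15 min at 25° C with compound (screening at 1, 10 and 100 μM), then reacted with the fluorigenic substrate AAMCA. Percent inhibition came from fluorescence at 3 h (linear kinetics) relative to no-inhibitor controls, in triplicate.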

For test [2], the target named is T2, Human FAAH (MBPΔTMhFAAH) (Homo sapiens, UniProt O00519).
T2 construct: made in house; host or cells: E. coli (pMALcE4 vector)
T2 sequence (O00519 30-579 limits assumed): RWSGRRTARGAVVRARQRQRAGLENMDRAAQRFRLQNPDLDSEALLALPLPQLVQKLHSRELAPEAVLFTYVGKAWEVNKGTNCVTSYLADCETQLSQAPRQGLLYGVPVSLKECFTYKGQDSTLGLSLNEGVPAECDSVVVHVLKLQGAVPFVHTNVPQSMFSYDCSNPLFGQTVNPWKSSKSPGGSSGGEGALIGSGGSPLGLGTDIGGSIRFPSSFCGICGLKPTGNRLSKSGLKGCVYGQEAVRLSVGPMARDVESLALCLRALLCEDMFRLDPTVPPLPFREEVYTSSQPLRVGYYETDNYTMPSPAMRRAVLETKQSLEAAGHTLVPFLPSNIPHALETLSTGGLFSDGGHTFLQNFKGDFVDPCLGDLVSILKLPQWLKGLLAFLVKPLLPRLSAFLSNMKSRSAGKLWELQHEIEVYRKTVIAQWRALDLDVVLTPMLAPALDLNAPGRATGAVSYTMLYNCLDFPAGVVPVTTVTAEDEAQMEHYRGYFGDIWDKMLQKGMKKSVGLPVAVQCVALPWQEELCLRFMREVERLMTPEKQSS
In words: Fluorescent assay protocol for hFAAH. Particulars: human FAAH (MBP fusion, ΔTM), procedure as for rFAAH. In short, it runs like this:
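MBP-fused ΔTM human FAAH from E. coli, pre-incubated 15 min at 25 °C with compound in 50 mM HEPES, 1 mM EDTA, 0.1% BSA, pH 7.4 (DMSO below 8%). Substrate AAMCA 20 μM (2×Km); fluorescence (ex 360/em 460) at 3 h gave % inhibition vs uninhibited control, triplicate, IC50 fitted.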

The target of test [3] is T3, Rat MAGL (rMAGL) (Rattus norvegicus, UniProt Q8R431).
T3 construct: made in house; host or cells: E. coli
T3 sequence (Q8R431 1-303): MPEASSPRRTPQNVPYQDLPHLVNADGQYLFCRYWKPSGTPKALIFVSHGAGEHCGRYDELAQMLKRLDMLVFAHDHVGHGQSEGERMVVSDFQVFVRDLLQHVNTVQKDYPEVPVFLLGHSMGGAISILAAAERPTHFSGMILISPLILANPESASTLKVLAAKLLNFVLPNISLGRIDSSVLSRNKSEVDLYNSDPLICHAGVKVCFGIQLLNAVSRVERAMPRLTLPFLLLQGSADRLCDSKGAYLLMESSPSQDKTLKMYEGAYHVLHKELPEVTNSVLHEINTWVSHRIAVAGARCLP
Description: Fluorescent assay protocol for rMAGL. The settings on record: recombinant rat MAGL, procedure as for hMAGL; read-out: IC50 rMAGL. In short, it runs like this: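 Rat MAGL run as for the human enzyme: AHMMCE substrate hydrolysis to fluorescent coumarin followed at 25° C. for 120 min, read every 15 min at 360/460 nm.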

The target of test [4] is T4, Human MAGL (hMAGL) (Homo sapiens, UniProt Q99685).
T4 construct: hexahistidine; made in house; host or cells: E. coli
T4 sequence (Q99685 1-303): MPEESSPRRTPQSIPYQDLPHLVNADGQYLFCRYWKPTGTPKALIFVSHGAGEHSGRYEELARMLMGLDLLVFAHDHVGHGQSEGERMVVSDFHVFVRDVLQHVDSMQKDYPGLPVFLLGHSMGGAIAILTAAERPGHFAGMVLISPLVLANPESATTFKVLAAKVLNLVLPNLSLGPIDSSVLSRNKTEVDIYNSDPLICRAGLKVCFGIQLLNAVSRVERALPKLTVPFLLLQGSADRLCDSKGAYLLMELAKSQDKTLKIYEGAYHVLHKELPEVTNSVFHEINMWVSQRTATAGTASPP
In words: Fluorescent assay protocol for hMAGL (AHMMCE substrate). Particulars: recombinant human MAGL, AHMMCE substrate, 15 min preincubation; read-out: IC50 hMAGL. In short, it runs like this:
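Hydrolysis of AHMMCE by human MAGL was monitored at 25°C for 120 min, with fluorescence at 360/460 nm recorded every 15 min and converted to 4-methylcoumarin using external standards. IC50 values were derived from triplicate wells at each inhibitor concentration.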

By IC50 is commonly meant the concentration that inhibits the measured activity by half. Turning to `Cc1ccc(S(=O)(=O)N2CCN(C(=O)Oc3ccc(Br)cc3)CC2)cc1` [Example 64, 4-bromophenyl 4-tosylpiperazine-1-carboxylate], the IC50 in test [1] was greater than 1000 nM; in test [2] it was greater than 1000 nM; in test [3], 10 to 100 nM; in test [4], 10 to 100 nM.

Take `Cc1ccc(S(=O)(=O)N2CCN(C(=O)Oc3c(F)cccc3F)CC2)cc1` [Example 65, 2,6-difluorophenyl 4-tosylpiperazine-1-carboxylate]: the IC50 in test [1] is greater than 1000 nM; in test [2] it was greater than 1000 nM; in test [3] it was 110 to 1000 nM; in test [4], 110 to 1000 nM.

For the compound `Cc1ccc(S(=O)(=O)N2CCN(C(=O)Oc3ccc(-c4ccc(F)cc4)cc3O)CC2)cc1` [Example 66, 4′-fluoro-3-hydroxy-[1,1′-biphenyl]-4-yl 4-tosylpiperazine-1-carboxylate], the IC50 in test [1] was greater than 1000 nM; in test [2], greater than 1000 nM; in test [3], 10 to 100 nM; in test [4] it was 10 to 100 nM.

Take `O=C(Nc1cccc(N2CCS(=O)(=O)CC2)c1)N1CCN(c2ccccc2)CC1` [Example 67, N-(3-(1,1-dioxidothiomorpholino)phenyl)-4-phenylpiperazine-1-carboxamide]: the IC50 in test [1] was greater than 1000 nM; in test [2], greater than 1000 nM; in test [3] it was 10 to 100 nM; in test [4], 10 to 100 nM.

In the case of `O=C(Nc1cccc(N2CCS(=O)(=O)CC2)c1)N1CCC(c2ccccc2)CC1` [Example 68, N-(3-(1,1-dioxidothiomorpholino)phenyl)-4-phenylpiperidine-1-carboxamide], the IC50 is greater than 1000 nM in test [1], greater than 1000 nM in test [2], 110 to 1000 nM in test [3] and 110 to 1000 nM in test [4].

For the compound `O=C(Oc1cccc(N2CCS(=O)(=O)CC2)c1)N1CCN(c2ccccc2)CC1` [Example 69, 3-(1,1-dioxidothiomorpholino)phenyl 4-phenylpiperazine-1-carboxylate], the IC50 was 110 to 1000 nM in test [1], 110 to 1000 nM in test [2], 10 to 100 nM in test [3] and 10 to 100 nM in test [4].

Take `O=C(Oc1cccc(N2CCS(=O)(=O)CC2)c1)N1CCC(c2ccccc2)CC1` [Example 70, 3-(1,1-Dioxothiomorpholin-4-yl)phenyl 4-phenylpiperidine-1-carboxylate]: the IC50 in test [1], in test [2], in test [3] and in test [4] was 110 to 1000 nM throughout.

In the case of `O=C(Oc1cccc(N2CCS(=O)(=O)CC2)c1)N1CCN(Cc2cccc(Oc3ccccc3)c2)CC1` [Example 71, 3-(1,1-dioxidothiomorpholino)phenyl 4-(3-phenoxybenzyl)piperazine-1-carboxylate], the IC50 was 110 to 1000 nM in test [1], 110 to 1000 nM in test [2], 10 to 100 nM in test [3] and 10 to 100 nM in test [4].

For `O=C(Oc1cccc(N2CCS(=O)(=O)CC2)c1)N1CCN(Cc2ccc3ccccc3n2)CC1` [Example 72, 3-(1,1-dioxidothiomorpholino)phenyl 4-(quinolin-2-ylmethyl)piperazine-1-carboxylate], the IC50 in test [1], in test [2], in test [3] and in test [4] was 110 to 1000 nM each time.

Consider `CC1CN(c2ccccc2)CCN1C(=O)Oc1cccc(N2CCS(=O)(=O)CC2)c1` (centres unmarked) [Example 73, 3-(1,1-dioxidothiomorpholino)phenyl 2-methyl-4-phenylpiperazine-1-carboxylate], for which the IC50 is greater than 1000 nM in test [1], greater than 1000 nM in test [2], 10 to 100 nM in test [3] and 10 to 100 nM in test [4].

For the compound `N#Cc1cccc(OC(=O)N2CC(OCc3ccc(Cl)cc3)C2)c1` [Example 74, 3-Cyanophenyl 3-(4-chlorobenzyloxy)azetidine-1-carboxylate], the IC50 in test [1] was 10 to 100 nM; in test [2] it was 10 to 100 nM; in test [3] it was greater than 1000 nM; in test [4], 110 to 1000 nM.
